Data published in patent publication US20250026733A1, “DEUTERATED ANALOGS OF PYROLE INHIBITORS OF ERK, SYNTHESIS THEREOF AND INTERMEDIATES THERETO” (BIOMED VALLEY DISCOVERIES, INC., priority 2022, published 2025).
Read-outs that look alike come from different tables or passages of the source.

Columns and labels:
[1] = biological target: T1, CYP2C9 (Homo sapiens, UniProt P11712); assay: In-vitro CYP inhibition study, CYP2C9; format: in vitro ADME; conditions: human liver microsomes, substrate Diclofenac (12 μM)
T1 construct: from tissue; host or cells: human liver microsomes, mixed-gender pool of 200
Experimental: (§1) Incubations were conducted using a cocktail of seven prototypical CYP substrates to ascertain the potential of each test article to inhibit the metabolism of concomitantly administered drugs. A mixed-gender pool of 200 human liver microsomal samples was used for this study. Incubations were conducted at approximately 37° C. in 200 μL incubation mixtures (pH 7.4) containing water, potassium phosphate buffer (50 mM), MgCl2 (3 mM), EDTA (1 mM), an NADPH regenerating system (NADP [1 mM], glucose 6 phosphate [5 mM], glucose 6 phosphate dehydrogenase [1 Unit/mL]), and probe substrate (i.e., a seven substrate cocktail) at the final concentrations indicated in Table 9. Reactions were initiated by the addition of NADPH-regenerating system and were automatically terminated at approximately 5 minutes by the addition of internal standard mixed in stop reagent, acetonitrile. The samples were centrifuged at 920×g for 10 minutes at 10° C. The supernatant fractions were analyzed by LC-MS/MS. To examine its ability to act as a time-dependent inhibitor of CYP enzymes, each test article (at the same concentrations used to evaluate direct inhibition, (i.e. 0, 0.02, 0.06, 0.2, 0.6, 2, 6, 20 μM) was pre-incubated at 37±2° C. with NADPH-fortified human liver microsomes for approximately 30 minutes. The pre-incubations were initiated by the addition of NADPH-regenerating system. After 30 min, probe substrate incubations were initiated by the addition of probe substrate cocktail. Incubations were terminated and samples were analyzed by LC-MS/MS. When inhibition was observed, the data were processed with a LIMS for the determination of IC50 values by utilizing the Levenberg-Marquardt algorithm to perform non-linear regression fitting of the data to the following 4-parameter sigmoidal-logistic IC50 equation:
(§2) As percent of control values are utilized, the minimum value (Min) is set to zero and the maximum value (Max) is set to 100 (or other values, as appropriate). The LIMS calculates an IC50 value only when it lies within the concentration range of the inhibitor studied. Therefore, when an IC50 value falls outside the concentration range studied, the IC50 values are reported to be greater than the highest concentration of the test article evaluated.

[2] = system: CYP3A4 mRNA expression; assay: In-vitro CYP induction study, CYP3A4 mRNA in cultured human hepatocytes; conditions: 20 μM, approximately 24 h
Experimental: (§3) A single preparation of characterized cryopreserved human hepatocytes isolated from non-transplantable human livers was treated in this study. Triplicate wells for each of the cultures were treated in 48-well plates with supplemented MCM (37±2° C.) containing 0.1% v/v DMSO (solvent control), one of three concentrations of each test article (1, 10 and 20 μM) or positive control CYP enzyme inducers omeprazole (50 μM), phenobarbital (1000 μM) or rifampin (20 μM). The cultures were incubated in a humidified culture chamber (37±2° C. at 95% relative humidity, 95/5% air/CO2). Approximately 24 h after treatment, hepatocytes were lysed in Buffer RLT reagent containing β-mercaptoethanol (100:1). The medium was aspirated, and Buffer RLT was added to each well. The cell lysates were prepared by repeated pipetting and shaking. Total RNA was isolated using the RNeasy Mini Kit. RNA quality and concentration were determined by measuring absorbance at 260 and 280 nm on a plate reader. Single-stranded cDNA was prepared from RNA with the RT Master Mix. The RT Master Mix comprises 10×RT buffer, 25× deoxyNTPs, 10× Random primers, RNase Inhibitor (20 U/μL), MultiScribe reverse transcriptase (50 U/μL) and RNase-free water. The RT Master Mix was added to each RNA sample to complete the components of the reaction. No template controls (NTCs) were included in the analysis. For the NTC reactions, RNase-free water was added in place of the RNA sample. The prepared cDNA samples were stored at −20±5° C. following analysis by qRT-PCR. Each PCR was performed in quadruplicate. A Primer Mix was prepared for each Gene Expression assay. A typical Primer Mix contained TaqMan Fast Advanced Master Mix (1×), Gene Expression Assay (1×, 900 nM forward and reverse primers) and RNase-free water. The Reaction Mix was prepared by adding the Primer Mix to cDNA. A percentage of samples (no less than 10%) included NAC (no amplification control) samples. […] Reactions were analyzed on a PCR sequence detection system. The relative quantity of the target cDNA compared with that of the control cDNA (GAPDH) was determined by the ΔΔCt method. Relative quantitation measures the change in mRNA expression in a test sample relative to that in a control sample (e.g., DMSO). This method assumes that the efficiency of the target amplification and the efficiency of the endogenous control amplification are approximately equal.

[3] = system: CYP2B6 mRNA expression; conditions: human, hepatocytes, 24 h
Experimental: as §3

[4] = biological target: T2, CYP1A2 (Homo sapiens, UniProt P05177); assay: In-vitro CYP inhibition study, CYP1A2; format: in vitro ADME; conditions: human liver microsomes, substrate Phenacetin (90 μM)
T2 construct: from tissue; host or cells: human liver microsomes, mixed-gender pool of 200
T2 sequence (P05177 1-516): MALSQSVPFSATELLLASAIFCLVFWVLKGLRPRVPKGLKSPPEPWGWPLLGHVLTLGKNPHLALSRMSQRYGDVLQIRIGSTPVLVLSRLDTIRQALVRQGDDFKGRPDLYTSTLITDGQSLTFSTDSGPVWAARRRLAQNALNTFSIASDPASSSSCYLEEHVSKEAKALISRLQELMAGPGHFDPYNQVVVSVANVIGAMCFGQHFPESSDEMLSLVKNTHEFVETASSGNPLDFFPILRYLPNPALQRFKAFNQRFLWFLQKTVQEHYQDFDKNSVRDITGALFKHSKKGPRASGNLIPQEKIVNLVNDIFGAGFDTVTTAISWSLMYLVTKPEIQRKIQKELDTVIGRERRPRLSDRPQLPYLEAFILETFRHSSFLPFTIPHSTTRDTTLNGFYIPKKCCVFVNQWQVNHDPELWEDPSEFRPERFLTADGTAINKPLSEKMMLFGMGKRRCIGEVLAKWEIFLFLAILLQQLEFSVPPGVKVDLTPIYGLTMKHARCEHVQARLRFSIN
Experimental: as §1, §2

[5] = system: CYP1A2 mRNA expression; conditions: human, hepatocytes, 24 h
Experimental: as §3

[6] = biological target: T3, CYP2D6 (Homo sapiens, UniProt P10635); assay: In-vitro CYP inhibition study, CYP2D6; format: in vitro ADME; conditions: human liver microsomes, substrate Dextramethorphan (10 μM)
T3 construct: from tissue; host or cells: human liver microsomes, mixed-gender pool of 200
Experimental: as §1, §2

[7] = Half-life determination in human liver microsomes; format: in vitro ADME; conditions: for half-life at 1 μM: human, NADPH; for Half-life, % change relative to ulixertinib: mean
Experimental: Human microsomes from a pool of 10 donors was obtained from a commercial source. Microsomes prepared in potassium phosphate buffer were spiked with ulixertinib, Formula 18, Formula 19, and Formula 21 individually in replicates of six at a final concentration of 1 μM. NADPH was used to initiate the experiment; a control of minus NADPH (minus cofactor) was also run in parallel to the human liver microsome stability. After spiking with test article, microsome replicates were placed in a 37° C. incubator with the following time course: 0, 5, 10, 15, 20, 30, 45 and 60 minutes. Samples were extracted with a protein precipitation quench consisting of ice cold acetonitrile containing internal standard (tolbutamide). Samples were analyzed for ulixertinib, Formula 18, Formula 19, and Formula 21. The half-lives of ulixertinib, Formula 18, Formula 19, and Formula 21 were characterized by the […] to determine the elimination rate (ke) and using the formula described below.
[formula] • ke (elimination rate): the slope of ln(percent remaining) vs time (in minutes)

[8] = biological target: T4, CYP2C19 (Homo sapiens, UniProt P33261); assay: In-vitro CYP inhibition study, CYP2C19; format: in vitro ADME; conditions: human liver microsomes, substrate S-Mephenytoin (60 μM)
T4 construct: from tissue; host or cells: human liver microsomes, mixed-gender pool of 200
Experimental: as §1, §2

[9] = Rep 1, read-out: Half-life, t½, Rep 1
[10] = Rep 2, read-out: Half-life, t½, Rep 2
[11] = Rep 3, read-out: Half-life, t½, Rep 3
[12] = Rep 4, read-out: Half-life, t½, Rep 4
[13] = Rep 5, read-out: Half-life, t½, Rep 5
[14] = Rep 6, read-out: Half-life, t½, Rep 6
[15] = six replicates, read-out: Half-life, t½, Mean ± SD

T1 sequence (P11712 whole entry): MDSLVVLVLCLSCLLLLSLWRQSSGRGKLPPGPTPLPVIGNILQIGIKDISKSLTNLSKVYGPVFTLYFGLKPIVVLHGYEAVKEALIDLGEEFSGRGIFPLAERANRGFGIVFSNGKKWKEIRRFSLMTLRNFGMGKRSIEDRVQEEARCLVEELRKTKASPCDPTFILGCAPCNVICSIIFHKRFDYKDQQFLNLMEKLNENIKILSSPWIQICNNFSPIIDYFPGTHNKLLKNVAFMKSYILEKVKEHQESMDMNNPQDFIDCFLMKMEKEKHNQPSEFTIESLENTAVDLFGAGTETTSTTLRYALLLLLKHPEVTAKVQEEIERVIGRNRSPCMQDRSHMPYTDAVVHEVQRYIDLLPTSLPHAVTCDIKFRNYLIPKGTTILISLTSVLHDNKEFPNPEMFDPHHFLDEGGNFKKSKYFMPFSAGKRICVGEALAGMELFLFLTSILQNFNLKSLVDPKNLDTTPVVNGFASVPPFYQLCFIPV
T3 sequence (P10635 whole entry): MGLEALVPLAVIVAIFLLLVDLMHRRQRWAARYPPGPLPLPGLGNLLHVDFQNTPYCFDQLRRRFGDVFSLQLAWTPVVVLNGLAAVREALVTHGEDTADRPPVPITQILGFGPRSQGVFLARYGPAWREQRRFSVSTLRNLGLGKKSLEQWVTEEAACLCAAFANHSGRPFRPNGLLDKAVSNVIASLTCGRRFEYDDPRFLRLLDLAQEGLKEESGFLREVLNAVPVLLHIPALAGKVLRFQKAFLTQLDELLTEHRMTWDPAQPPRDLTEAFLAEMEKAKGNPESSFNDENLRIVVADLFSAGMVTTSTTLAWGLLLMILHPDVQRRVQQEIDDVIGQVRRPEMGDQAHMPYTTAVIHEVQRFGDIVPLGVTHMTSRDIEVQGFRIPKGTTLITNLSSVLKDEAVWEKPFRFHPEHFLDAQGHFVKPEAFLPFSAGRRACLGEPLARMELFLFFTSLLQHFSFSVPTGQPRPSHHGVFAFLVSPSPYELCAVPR
T4 sequence (P33261 whole entry): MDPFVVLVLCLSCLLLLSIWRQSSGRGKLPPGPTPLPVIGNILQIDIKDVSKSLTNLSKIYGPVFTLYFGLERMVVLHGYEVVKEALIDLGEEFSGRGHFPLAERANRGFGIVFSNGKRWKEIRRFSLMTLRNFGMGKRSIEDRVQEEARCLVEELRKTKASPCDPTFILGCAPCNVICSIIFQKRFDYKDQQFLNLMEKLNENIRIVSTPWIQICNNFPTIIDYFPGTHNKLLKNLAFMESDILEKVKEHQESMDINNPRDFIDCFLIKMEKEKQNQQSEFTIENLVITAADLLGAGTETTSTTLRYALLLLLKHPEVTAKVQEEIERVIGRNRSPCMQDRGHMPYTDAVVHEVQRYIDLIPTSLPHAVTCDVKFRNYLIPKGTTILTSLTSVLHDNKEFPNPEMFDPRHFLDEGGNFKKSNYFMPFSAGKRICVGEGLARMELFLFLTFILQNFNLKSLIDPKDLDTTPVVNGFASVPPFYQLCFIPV

SMILES	IC50 ([1]; preincubation 0 min) [µM]	IC50 ([1]; preincubation 30 min) [µM]	Fold Change in mRNA Expression of CYP3A4 [2] [fold]	Fold Change in mRNA Expression of CYP2B6 ([3]; 1 μM) [fold]	Fold Change in mRNA Expression of CYP2B6 ([3]; 10 μM) [fold]	IC50 ([4]; preincubation 0 min) [µM]	IC50 ([4]; preincubation 30 min) [µM]	Fold Change in mRNA Expression of CYP1A2 ([5]; 1 μM) [fold]	Fold Change in mRNA Expression of CYP1A2 ([5]; 20 μM) [fold]	IC50 ([6]; preincubation 0 min) [µM]	IC50 ([6]; preincubation 30 min) [µM]	half-life at 1 μM [7, 9] [min]	half-life at 1 μM [7, 10] [min]	half-life at 1 μM [7, 11] [min]	half-life at 1 μM [7, 12] [min]	half-life at 1 μM [7, 13] [min]	half-life at 1 μM [7, 14] [min]	half-life at 1 μM [7, 15] [min]	IC50 ([8]; preincubation 0 min) [µM]	IC50 ([8]; preincubation 30 min) [µM]	other results
CC(C)Nc1cc(-c2c[nH]c(C(=O)N[C@H](CO)c3cccc(Cl)c3)c2)c(Cl)cn1 [Ulixertinib, reference compound]	3.1	3.4	8.26	1.25	1.99	> 20	13	3.73	6.42	> 20	18	49.2	51.2	50.3	46.2	48.5	48.1	48.9 ± 1.8	8.5	9.2	
[2H]C([2H])([2H])C(Nc1cc(-c2c[nH]c(C(=O)N[C@H](CO)c3cccc(Cl)c3)c2)c(Cl)cn1)C([2H])([2H])[2H] [Formula 19, 4-(5-chloro-2-((propan-2-yl-1,1,1,3,3,3-d6)amino)pyridin-4-yl)-N-(1-(3-chiorophenyl)-2-hydroxyethyl)-1H-pyrrole-2-carboxamide]	3.1	4.3	11.7	1.47	2.10	> 20	19	3.57	9.52		> 20	43.4	45.2	46.1	44.9	47.8	44.9	45.4 ± 1.5	10	12	IC50 at 5 min ([6]; both sexes, human, pH 7.4, probe Dextramethorphan (10 μM), preincubation 0 min): 20 µM; shorter half-life compared to ulixertinib ([7]; Table 5): 7%; Half-life, % change relative to ulixertinib [7]: (−7%)
[2H]C([2H])([2H])C([2H])(Nc1cc(-c2c[nH]c(C(=O)N[C@H](CO)c3cccc(Cl)c3)c2)c(Cl)cn1)C([2H])([2H])[2H] [Formula 18, 4-(5-chloro-2-((propan-2-yl-d7)amino)pyridin-4-yl)-N-(1-(3-chlorophenyl)-2-hydroxyethyl)-1H-pyrrole-2-carboxamide]	3.5	3.9	7.06	1.36	1.90	> 20	17	3.02		> 20	19	59.2	58.7	60.6	55.8	57.5	62	59 ± 2.2	9.6	11	Fold Change in mRNA Expression of CYP1A2 ([5]; 10 μM): 5.94 fold; longer half-life than ulixertinib ([7]; Table 5): 21%; Half-life, % change relative to ulixertinib [7]: (+21%)
Cl.[2H]C(C)(C)Nc1cc(-c2c[nH]c(C(=O)N[C@H](CO)c3cccc(Cl)c3)c2)c(Cl)cn1 [Formula 21A]	3.4	4.4	6.86	1.08	2.04	> 20	> 20		4.00	> 20	> 20								19	19	
